Results: patent US9241964B2, “Composition from Sphaeranthus indicus and Garcinia mangostana for the control of metabolic syndrome” (LAILA NUTRACEUTICALS, priority 2009, dated 2016)

Key:
[1] = system: 3T3-L1 pre-adipocyte cells; test: Pro-lipolytic activity in differentiated adipocytes (free glycerol release); format: cell-based, mouse; details: 3T3-L1 (Table IV)
Method: Similarly, the pro-lipolytic activity of the ethyl actate extract (LI/DD-II/054A/01) of Sphaeranthus indicus was assessed in differentiated/mature adipocytes using 3T3-L1 pre-adipocyte cells. The lipolytic activity was assessed in mature adipocytes by measuring free glycerol secreted into the culture medium as per the procedure of Adipolysis Assay Kit (Chemicon International, USA).
The lipolytic activity was assessed in mature adipocytes as per the procedure of Chemicon International, USA, by measuring free glycerol secreted into the culture medium. One hundred thousand 3T3-L1 […] pre-adipocyte cells in Dulbecco's Modified Eagles Medium (DMEM) containing 10% Fetal Bovine Serum (FBS) were taken into each well of a 24-well plate and incubated for 48 h at 37° C. and 5% CO2. The differentiation of pre-adipocyte cells was initiated in a differentiation medium containing 10 μg/ml insulin, 1.0 μM dexamethasone, and 0.5 mM isobutylmethylxanthine (IBMX). The cells were differentiated for 5 days and then the culture medium was removed. […] The samples and the controls were incubated for 15 min, and the absorbance was read at 540 nm. […]

α-amylase = test: α-Amylase inhibition (DNS method); format: biochemical; details: 1% soluble starch as substrate
Method: α-Amylase inhibitory activity was measured using the dinitrosalicylic acid (DNS) method developed by Bernfeld (Methods in Enzymology, 1955, Vol. 1, pp 149-158), improved by Jamieson et al (Journal of Dental Research 1969; 48(3): 483) and adopted for testing inhibitory potential of test substances by M. C. M da Silva et al (2004, Pesq. Agropec. bras., Brasilia, 2004; 39(3); pp 201-208) using 1% soluble starch as substrate.
The test substances (α-mangostin, γ-mangostin and AR 933) were pre-incubated with α-amylase 100 μL (10-25 U/mL) at room temperature for 20 minutes prior to the addition of 100 μL of the substrate solution followed by incubation at 37° C. for 10 minutes. The reactions were stopped by the addition of 200 μL of DNS reagent, followed by color development by placing the tubes in boiling water for 5 minutes. After addition of 3.6 mL distilled water, the absorbance was read at 470 nm. Known α-amylase inhibitor was used as positive control and vehicle was used as negative control. Assays were carried out at least in duplicate. Percentage inhibition will be calculated by comparing mean test OD with mean control OD. {% inhibition=[(COD−TOD)/COD]×100}. The IC50 values were calculated by linear regression analysis of the dose response curve.

[2] = system: 3T3-L1 mouse pre-adipocyte cells; test: Inhibition of lipid accumulation in differentiated adipocytes (Oil Red O); format: cell-based; details: 10 μg/ml; 3T3-L1 (Table III)
Method: The inhibition of fat accumulation in the treated cells was compared with the mock treated differentiated adipocytes and percentage inhibition was measured.
One hundred thousand 3T3-L1 […] pre-adipocyte cells in Dulbecco's Modified Eagles Medium (DMEM) containing 10% Fetal Bovine Serum (FBS) were taken into each well of a 24-well plate and incubated for 48 h at 37° C. and 5% CO2. The differentiation of pre-adipocyte cells was initiated in a differentiation medium containing 10 μg/ml insulin, 1.0 μM dexamethasone, and 0.5 mM isobutylmethylxanthine (IBMX) for 48 h. After this the medium was replaced by DMEM containing 10 μg/ml insulin and incubated for 3 days. Then the differentiating cells were treated 10 μg/ml of Sphaeranthus indicus ethyl acetate extract (LI/DD-II/054A/01) and 0.5 μg/ml of 7-hydroxyfrullanolide (LI054A01) and maintained in the medium for another 3-5 days. The cells incubated with 0.1% DMSO were considered as the vehicle control. After the incubation period, cells were washed with phosphate buffered saline (PBS) and fixed with 10% buffered formalin for 1 h at room temperature. One small aliquot of cell suspension was separated for cell counting in hemocytometer chamber. Fixed cells were stained with Oil Red O solution to measure the cellular neutral lipid accumulation. Briefly, cells were washed with PBS, fixed with 10% buffered formalin and stained with Oil Red O solution (0.5 g in 100 ml isopropanol) for 10 min. After removing the staining solution, the dye retained in the cells will be eluted into isopropanol and OD measured at 550 nm. The inhibition of fat accumulation in the treated cells was compared with the mock treated differentiated adipocytes. The treated and control cells were also analyzed and compared for inhibition of lipid accumulation visually under microscope and recorded digitally in suitable image capture system. The anti-adipogenic activities shown by Sphaeranthus Indicus ethyl acetate extract (LI/DD-II/054A/01) and LIO054A01 are summarized in the following table.

α-glucosidase = test: α-Glucosidase inhibition (p-nitrophenyl α-D-glucopyranose); format: biochemical; details: pH 7, room temperature
Method: α-Glucosidase inhibitory activity was measured using the in vitro method developed by D. Prasanth et al., (Fitoterapia 2001, 72, 686-688). In a micro plate well was taken 50 μL of α-glucosidase enzyme (0.4 U/mL), and treated with 90 μL of 100 mM phosphate buffer (pH 7) and 10 μL test substances (α-mangostin, γ-mangostin and AR 933) or vehicle control. The contents were mixed well and the reaction mixtures were incubated at room temperature for 5 min, and then added 50 μL of p-nitrophenyl α-D-glucopyranose (20 mM) as substrate. The contents were mixed well and again incubated at room temperature for 15 min. The reaction was stopped by the addition of 30 μL of sodium carbonate solution (135 mM). The absorbance was measured at 405 nm using micro plate reader. Control and test blank ODs were obtained by replacing enzyme with buffer. Percentage inhibitions were calculated by comparing mean test OD with mean control OD. {% inhibition=[(COD−TOD)/COD]×100}. The IC50 values were calculated by linear regression analysis of the dose response curve.

| Compound | % acceleration of lipolysis 25 μg/ml [1] [%] | IC50 (μg/ml) for α-amylase (α-amylase) [µg/mL] | % inhibition of Lipid accumulation 10 μg/ml [2] [%] | IC50 (μg/ml) for α-glucosidase (α-glucosidase) [µg/mL] |
| --- | --- | --- | --- | --- |
| COc1c(O)cc2oc3cc(O)c(CC=C(C)C)c(O)c3c(=O)c2c1CC=C(C)C [α-mangostin] | 156.56 | 3.99 | 16.06 | 0.30 |
| CC(C)=CCc1c(O)cc2oc3cc(O)c(O)c(CC=C(C)C)c3c(=O)c2c1O [γ-mangostin] | 4.52 | 3.88 | 61.57 | 0.16 |
